Measurements published in patent US6369069B1 (Aventis Pharma Deutschland GmbH, priority 1998, dated 2002).

system: Na^+-dependent Cl^−/HCO3^− exchanger (NCBE); assay: Inhibition of the Na+-dependent Cl−/HCO3− exchanger (NCBE) in human endothelial cells (pHi recovery, BCECF fluorescence, FLIPR); assay type: cell-based; settings: 10 μM
Method: Inhibition of the Na^+-dependent Cl^−/HCO3^− exchanger (NCBE) in human endothelial cells
Human endothelial cells (ECV-304) were detached form culture flasks with the aid of trypsin/EDTA buffer (0.05/0.02% in phosphate buffer) and, after centrifugation (100 g, 5 min), taken up in a buffered saline solution (mmol/l: 115 NaCl, 20 NH4Cl, 5 KCl, 1 CaCl2, 1 MgSO4, 20 N-(2-hydroxyethyl)-piperazine-N[…]-2-ethanesulfonic acid (HEPES), 5 glucose and 1 g/l of bovine serum albumin; pH 7.4). This cell suspension was incubated at 37 °C. for 20 min with 5 μM BCECF acetoxymethyl ester. The cells were then washed and resuspended in a sodium- and bicarbonate-free buffer solution (mmol/l: 5 HEPES, 133.8 choline chloride, 4.7 KCl, 1.25 MgCl2, 0.97 K2HPO4, 0.23 KH2PO4, 5 glucose; pH 7.4).
For the subsequent fluorescence measurement in the FLIPR (Fluorescent Imaging Plate Reader), 100 μl of this cell suspension in each case containing 20,000 cells were added by pipette per well of a 96-well microtiter plate and this microtiter plate was centrifuged (100 g, 5 min). In the FLIPR, 100 μl of buffer solution in each case were then removed from a further prepared microtiter plate and added by pipette to each of the 96 wells of the measuring plate. In this case, for a 100% control, i.e. a recovery of the intracellular pH (pHi) by means of the NCBE, a bicarbonate- and sodium-containing buffer solution (mmol/l: 5 HEPES, 93.8 NaCl, 40 NaHCO3, 4.7 KCl, 1.25 CaCl2, 1.25 MgCl2, 0.97 Na2HPO4, 0.23 NaH2PO4, 5 glucose; pH 7.4) which contained 50 μM HOE 642 was used. For a 0% control, i.e. no pHi recovery at all, a bicarbonate-free, sodium-containing buffer solution (mmol/l: 5 HEPES, 133.8 NaCl, 4.7 KCl, 1.25 CaCl2, 1.25 MgCl2, 0.97 Na2HPO4, 0.23 NaH2PO4, 5 glucose; pH 7.4) to which 50 μM HOE 642 were also added was employed. The compounds according to the invention were added in various concentrations of the sodium- and bicarbonate-containing solution. After addition of the buffer solutions to the dye-loaded acidified cells situated in the measuring plate, the increase in the fluorescence intensity which corresponded to an increase in the pHi was determined in each well of the microtiter plate.
The kinetics were in this case recorded at 35° C. over a period of 2 minutes. The increase in the fluorescence intensities for different concentrations of the compounds according to the invention was related to the two controls and from this the inhibitory action of the substances was determined.

Row | Compound | Residual activity % of the NCBE at 10 μM [%]
1 | COC(=O)C(Cc1ccccc1)N(Cc1ccc(-c2ccccc2S(=O)(=O)NC#N)cc1)C(=O)CCCCc1cccs1 (stereo not shown) [Example 225] | 88.1
2 | COC(=O)C(c1ccccc1)N(Cc1ccc(-c2ccccc2S(=O)(=O)NC#N)cc1)C(=O)CCc1cccs1 (stereo not shown) [Example 286] | 68.8
3 | COc1ccc(CN(Cc2ccc(-c3ccccc3S(=O)(=O)NC#N)cc2)C(=O)c2ccc(C)cc2)cc1 [Example 70] | 94.7
4 | COc1ccc(CC(=O)N(CCc2cccs2)Cc2ccc(-c3ccccc3S(=O)(=O)NC#N)cc2)cc1 [Example 172] | 89.7
5 | COCCN(Cc1ccc(-c2ccccc2S(=O)(=O)NC#N)cc1)C(=O)Cc1ccsc1 [Example 227] | 50.6
6 | N#CNS(=O)(=O)c1ccccc1-c1ccc(CN(Cc2ccc(C(F)(F)F)cc2)C(=O)C(c2ccccc2)c2ccccc2)cc1 [Example 119] | 75.7
7 | N#CNS(=O)(=O)c1ccccc1-c1ccc(CN(CCO)C(=O)c2ccccc2F)cc1 [Example 38] | 66.7
8 | Cc1ccc(CN(Cc2ccc(-c3ccccc3S(=O)(=O)NC#N)cc2)C(=O)c2cccs2)cc1 [Example 85] | 51.1
9 | COc1cc(CN(Cc2ccc(-c3ccccc3S(=O)(=O)NC#N)cc2)C(=O)CC(C)(C)C)cc(OC)c1OC [Example 162] | 30.2
10 | C[C@@H](c1ccccc1)N(Cc1ccc(-c2ccccc2S(=O)(=O)NC#N)cc1)C(=O)Cc1ccccc1 [Example 123] | 72.2
11 | COc1cccc(CC(=O)N(CCO)Cc2ccc(-c3ccccc3S(=O)(=O)NC#N)cc2)c1 [Example 20] | 37.1
12 | CN(Cc1ccc(-c2ccccc2S(=O)(=O)NC#N)cc1)C(=O)Cc1c[nH]c2ccccc12 [Example 206] | 23.8
13 | N#CNS(=O)(=O)c1ccccc1-c1ccc(CN(Cc2ccccc2)C(=O)Nc2c(F)cccc2F)cc1 [Example 297] | 80.4
14 | N#CNS(=O)(=O)c1ccccc1-c1ccc(CN(Cc2cccc(Cl)c2)C(=O)Cc2cccs2)cc1 [Example 273] | 32.4
15 | N#CNS(=O)(=O)c1ccccc1-c1ccc(CN(Cc2cccc3ccccc23)C(=O)Cc2ccccc2Cl)cc1 [Example 293] | 55.1
16 | N#CNS(=O)(=O)c1ccccc1-c1ccc(CN(Cc2ccc3ccccc3c2)C(=O)CCOc2ccccc2)cc1 [Example 340] | 37.2
17 | N#CNS(=O)(=O)c1ccccc1-c1ccc(CN(Cc2ccc(C(F)(F)F)cc2)C(=O)Cc2cccs2)cc1 [Example 235] | 67.1
18 | N#CNS(=O)(=O)c1ccccc1-c1ccc(CN(Cc2cccs2)C(=O)C(=O)c2ccco2)cc1 [Example 254] | 64.5
19 | N#CNS(=O)(=O)c1ccccc1-c1ccc(CN(C(=O)Cc2cccs2)C2CCCc3ccccc32)cc1 (stereo not shown) [Example 315] | 23.5

Row | Compound | Residual activity % of the NCBE at 10 μM [%]
20 | C[C@@H](c1ccccc1)N(Cc1ccc(-c2ccccc2S(=O)(=O)NC#N)cc1)C(=O)C(c1ccccc1)c1ccccc1 [Example 113] | 94.6
21 | CCN(Cc1ccc(-c2ccccc2S(=O)(=O)NC#N)cc1)C(=O)CCCc1cccs1 [Example 191] | 39.3
22 | COc1ccccc1C(=O)N(Cc1ccc(-c2ccccc2S(=O)(=O)NC#N)cc1)Cc1ccccc1C [Example 332] | 31.7
23 | COCCC(=O)N(Cc1ccc(-c2ccccc2S(=O)(=O)NC#N)cc1)Cc1ccccc1F [Example 326] | 25.6
24 | N#CNS(=O)(=O)c1ccccc1-c1ccc(CN(CC2CCCCC2)C(=O)Cc2ccccc2[N+](=O)[O-])cc1 [Example 257] | 54.6
25 | COc1ccccc1C(=O)N(Cc1ccc(-c2ccccc2S(=O)(=O)NC#N)cc1)CC1CCCO1 (stereo not shown) [Example 338] | 50.7
26 | N#CNS(=O)(=O)c1ccccc1-c1ccc(CN(C(=O)CCCc2cccs2)C2CC2)cc1 [Example 189] | 72.5
27 | N#CNS(=O)(=O)c1ccccc1-c1ccc(CN(Cc2ccco2)C(=O)Cc2ccc(Cl)cc2)cc1 [Example 148] | 45.6
28 | N#CNS(=O)(=O)c1ccccc1-c1ccc(CN(CC2CCCCC2)C(=O)CCCCc2ccccc2)cc1 [Example 266] | 79.7
29 | CCN(Cc1ccc(-c2ccccc2S(=O)(=O)NC#N)cc1)C(=O)Cc1c[nH]c2ccccc12 [Example 207] | 31.0
30 | Cc1ccccc1CN(Cc1ccc(-c2ccccc2S(=O)(=O)NC#N)cc1)C(=O)CC1CCCCC1 [Example 352] | 35.2
31 | Cc1ccc(CN(Cc2ccc(-c3ccccc3S(=O)(=O)NC#N)cc2)C(=O)c2ccccc2F)cc1 [Example 95] | 74.7
32 | N#CNS(=O)(=O)c1ccccc1-c1ccc(CN(Cc2cccc(-c3ccccc3)c2)C(=O)CCOc2ccccc2)cc1 [Example 347] | 19.3
33 | N#CNS(=O)(=O)c1ccccc1-c1ccc(CN(Cc2ccccn2)C(=O)Cc2csc3ccccc23)cc1 [Example 212] | 60.2
34 | N#CNS(=O)(=O)c1ccccc1-c1ccc(CN(Cc2ccc(Cl)cc2)C(=O)CCC2CCCCC2)cc1 [Example 10] | 84.9
35 | Cc1ccc(CN(Cc2ccc(-c3ccccc3S(=O)(=O)NC#N)cc2)C(=O)c2cc3ccccc3s2)cc1 [Example 75] | 80.3
36 | CCCC(=O)N(Cc1ccc(OC)cc1)Cc1ccc(-c2ccccc2S(=O)(=O)NC#N)cc1 [Example 3] | 80.9
37 | N#CNS(=O)(=O)c1ccccc1-c1ccc(CN(Cc2cccc(Cl)c2)C(=O)NCc2ccccc2)cc1 [Example 307] | 55.8
38 | COc1ccccc1C(=O)N(Cc1ccc(-c2ccccc2S(=O)(=O)NC#N)cc1)Cc1cccc(Cl)c1Cl [Example 329] | 25.7

same assay, conditions: compound at 10 μM; R(3) to R(7) hydrogen series

Row | Compound | Residual activity % of the NCBE at 10 μM [%]
39 | N#CNS(=O)(=O)c1ccccc1-c1ccc(CN(CC2CC(C(=O)N3CCCC3)=NO2)C(=O)Cc2cccs2)cc1 (stereo not shown) [Example 396] | 53.2
40 | N#CNS(=O)(=O)c1ccccc1-c1ccc(CN(Cc2ccccc2)C(=O)Cc2ccco2)cc1 [Example 389] | 51.5

same assay, conditions: compound at 10 μM; sub-table with R7 substituent

Row | Compound | Residual activity % of the NCBE at 10 μM [%]
41 | Cc1ccc(-c2ccc(CN(Cc3cccc(Cl)c3Cl)C(=O)C(C)c3cccs3)cc2)c(S(=O)(=O)NC#N)c1 (stereo not shown) [Example 528] | 72.0
42 | Cc1ccc(-c2ccc(CN(Cc3ccccc3)C(=O)Cc3ccc(Cl)cc3)cc2)c(S(=O)(=O)NC#N)c1 [Example 529] | 89.4
43 | Cc1ccc(-c2ccc(CN(Cc3ccccc3F)C(=O)CC3CCCCC3)cc2)c(S(=O)(=O)NC#N)c1 [Example 551] | 82.6
44 | Cc1ccc(-c2ccc(CN(Cc3ccc4ccccc4c3)C(=O)Cc3cccs3)cc2)c(S(=O)(=O)NC#N)c1 [Example 515] | 68.9
45 | Cc1ccc(-c2ccc(CN(Cc3ccc4ccccc4c3)C(=O)Cc3ccsc3)cc2)c(S(=O)(=O)NC#N)c1 [Example 539] | 65.2
46 | Cc1ccc(-c2ccc(CN(Cc3cccc(Cl)c3Cl)C(=O)Cc3ccc(Cl)cc3)cc2)c(S(=O)(=O)NC#N)c1 [Example 536] | 76.3
